The nature of series [1]: Pharmacokinetic studies, second set (LC-MS, brain). Type of series: in vivo. To be noted: pyrido pretreated mice. As for the experimental part: Another group of mice were injected with free tenofovir. The total dose of tenofovir that was injected to the mice that received encapsulated tenofovir was […], out of which 7.5 mg/kg was encapsulated tenofovir. The total dose of tenofovir that was injected to the mice that received free tenofovir was 75 mg/kg. All animals were pretreated with 0.5 mg/kg pyrido. Results are mean of 5 mice±SD.
In the second set of the PK studies, all the mice were pretreated with pyrido 15 min prior to the injection of 7.5 mg/kg tenofovir encapsulated in optimal vesicles or with 75 mg/kg free tenofovir with no vesicles.

The conditions of series [2]: CNS penetration effectiveness index; cited from earlier work.

As for `C[C@H](Cn1cnc2c(N)ncnc21)OCP(=O)(O)O` [tenofovir, ({[(2R)-1-(6-amino-9H-purin-9-yl)propan-2-yl]oxy}methyl)phosphonic acid], the “concentration of tenofovir in the brain” value in series [1] (7.5 mg/kg tenofovir encapsulated in optimized V-Smart vesicles, all time points up to 2 hours, vs estimated therapeutic threshold) is listed as above 100 ng/mL. Also, the “concentrations of tenofovir in the brain” value in series [1] (free drug 75 mg/kg, no vesicles, detection limit 40 ng/ml) is given as “below the measurable level”. Moreover, the concentration at 60 min in series [1] (mouse, brain, intravenous, 7.5 mg/kg encapsulated in optimized V-Smart vesicles, 60 min after the injection, read-out: concentration of tenofovir in the brain) is around 1000 ng/mL. Moreover, in series [1] (mouse, brain, intravenous, 7.5 mg/kg encapsulated in optimized V-Smart vesicles, after 15 min, read-out: concentration of tenofovir in the brain), the concentration at 15 min was above 6000 ng/g. In addition, the CPE rating in series [2] is recorded as 1.

Values taken from patent US11304964B2, “Bolaamphiphilic compounds, compositions and uses thereof” (priority 2012, dated 2022).
